Reference: US20250025411A1, “READILY SOLUBLE AND THERMOSTABLE GLUCAGON FORMULATIONS AND DELIVERY FOR MINI-DOSING AND CLOSED -LOOP PROPHYLACTIC TREATMENT OF HYPOGLYCEMIA” (Massachusetts Institute of Technology, priority 2023, published 2025)

Test: High throughput screening of water-soluble solid excipients for glucagon dissolution
Type: physicochemical
Conditions: for Fold change vs. PBS Avg.: 30-minute incubation in pH 7.4 PBS containing 1 mg/mL excipient; for Fold change vs. PBS Avg. / Glucagon concentration Avg.: 37° C.; for Glucagon concentration Avg.: solubilized glucagon after 30-minute incubation of lyophilized glucagon in pH 7.4 PBS containing 1 mg/mL excipient; for enhancement of glucagon dissolution (statistical significance compared to no excipient): 30-minute incubation in pH 7.4 PBS at 37° C.

SMILES	Fold change vs. PBS Avg.	Glucagon concentration Avg.	enhancement of glucagon dissolution (statistical significance compared to no excipient)	Fold change vs. PBS Avg. (listed as L-Histidine)	Glucagon concentration Avg. (listed as L-Histidine)	enhancement of solution glucagon concentration compared to unformulated glucagon (pH 7.4 PBS)
O=S(=O)([O-])CCC[P+](c1ccccc1)(c1ccccc1)c1ccccc1 [3-(Triphenylphosphonio)propane-1-sulfonate]	1.21 fold	0.26 mg/mL				
NC(=O)CNCCS(=O)(=O)O [ACES]	1.12 fold	0.24 mg/mL				
NC(=O)CN(CC(=O)O)CC(=O)O [ADA]	0.26 fold	0.06 mg/mL				
OC[C@H]1O[C@@H]2O[C@H]3[C@H](O)[C@@H](O)[C@@H](O[C@H]4[C@H](O)[C@@H](O)[C@@H](O[C@H]5[C@H](O)[C@@H](O)[C@@H](O[C@H]6[C@H](O)[C@@H](O)[C@@H](O[C@H]7[C@H](O)[C@@H](O)[C@@H](O[C@H]1[C@H](O)[C@H]2O)O[C@@H]7CO)O[C@@H]6CO)O[C@@H]5CO)O[C@@H]4CO)O[C@@H]3CO [Alpha cyclodextrin]	0.55 fold	0.12 mg/mL				
NC(=O)C[C@H](N)C(=O)O.O [Asparagine monohydrate]	1.55 fold	0.33 mg/mL				
OC[C@H]1O[C@@H]2O[C@H]3[C@H](O)[C@@H](O)[C@@H](O[C@H]4[C@H](O)[C@@H](O)[C@@H](O[C@H]5[C@H](O)[C@@H](O)[C@@H](O[C@H]6[C@H](O)[C@@H](O)[C@@H](O[C@H]7[C@H](O)[C@@H](O)[C@@H](O[C@H]8[C@H](O)[C@@H](O)[C@@H](O[C@H]1[C@H](O)[C@H]2O)O[C@@H]8CO)O[C@@H]7CO)O[C@@H]6CO)O[C@@H]5CO)O[C@@H]4CO)O[C@@H]3CO [B-Cyclodextrin]	1.40 fold	0.30 mg/mL				
OCCN(CCO)C(CO)(CO)CO [BIS-TRIS]	1.67 fold	0.36 mg/mL				
O=C(O)c1ccccc1 [Benzoic acid]	15.09 fold	3.25 mg/mL	successfully enhanced the dissolution of glucagon			
NCCC(=O)O [Beta-Alanine]	1.34 fold	0.29 mg/mL				
C[N+](C)(C)CC(=O)O [Betaine]	1.11 fold	0.24 mg/mL				
CC(C)(O)C(Cl)(Cl)Cl [Chlorobutanol Hemihydrate]	1.83 fold	0.39 mg/mL				
OC[C@H]1O[C@H](O[C@H]2O[C@H](CO)[C@@H](O)[C@H](O)[C@H]2O)[C@H](O)[C@@H](O)[C@@H]1O [D-(+)-Trehalose]	1.55 fold	0.33 mg/mL				
O=C(CO)[C@@H](O)[C@H](O)[C@H](O)CO [D-(−)-Fructose]	1.09 fold	0.23 mg/mL				
CC(C)(S)[C@@H](N)C(=O)O [D-Penicillamine]	1.42 fold	0.31 mg/mL				
OC[C@@H](O)[C@@H](O)[C@H](O)[C@@H](O)CO [D-Sorbitol]	1.16 fold	0.25 mg/mL				
O=C[C@H](O)[C@@H](O)[C@H](O)[C@H](O)CO [D-glucose]	1.08 fold	0.23 mg/mL				
O=S(=O)(O)CC(O)CN(CCO)CCO (centres unmarked) [DIPSO]	1.28 fold	0.28 mg/mL				
O.O=C[C@H](O)[C@@H](O)[C@H](O)[C@H](O)CO [Dextrose Monohydrate]	1.09 fold	0.24 mg/mL				
O=C(O)C(S)C(S)C(=O)O (centres unmarked) [Dimercaptosuccinic acid]	2.38 fold	0.51 mg/mL				
CCCCCCCCCCCCOP(=O)([O-])OCC[N+](C)(C)C [Dodecylphosphocholine]	4.37 fold	0.94 mg/mL	successfully enhanced the dissolution of glucagon			
O=C(O)CN(CCOCCOCCN(CC(=O)O)CC(=O)O)CC(=O)O [EGTA]	3.11 fold	0.67 mg/mL				
O=S(=O)(O)CCCN1CCN(CCO)CC1 [EPPS]	0.79 fold	0.17 mg/mL				
Nc1nc2ncc(CNc3ccc(C(=O)N[C@@H](CCC(=O)O)C(=O)O)cc3)nc2c(=O)[nH]1 [Folic acid]	1.98 fold	0.43 mg/mL				
O=S(=O)(O)CCN1CCN(CCO)CC1 [HEPES]	1.15 fold	0.25 mg/mL				
CC(O)COC[C@H]1O[C@@H]2O[C@H]3[C@H](O)[C@@H](O)[C@@H](O[C@H]4[C@H](O)[C@@H](O)[C@@H](O[C@H]5[C@H](O)[C@@H](O)[C@@H](O[C@H]6[C@H](O)[C@@H](O)[C@@H](O[C@H]7[C@H](O)[C@@H](O)[C@@H](O[C@H]8[C@H](O)[C@@H](O)[C@@H](O[C@H]1[C@H](O)[C@H]2O)O[C@@H]8COCC(C)O)O[C@@H]7COCC(C)O)O[C@@H]6COCC(C)O)O[C@@H]5COCC(C)O)O[C@@H]4COCC(C)O)O[C@@H]3COCC(C)O (some centres unmarked) [Hydroxypropyl Betadex]	1.74 fold	0.37 mg/mL				
CC[C@H](C)[C@H](N)C(=O)O [Isoleucine]	1.88 fold	0.41 mg/mL				
O=C[C@H](O)[C@@H](O)[C@@H](O)CO [L-(+)-Arabinose]	1.52 fold	0.33 mg/mL				

SMILES	Fold change vs. PBS Avg.	Glucagon concentration Avg.	enhancement of glucagon dissolution (statistical significance compared to no excipient)	Fold change vs. PBS Avg. (listed as L-Histidine)	Glucagon concentration Avg. (listed as L-Histidine)	enhancement of solution glucagon concentration compared to unformulated glucagon (pH 7.4 PBS)
Cl.N[C@@H](CS)C(=O)O [L-Cysteine hydrochloride]	0.93 fold	0.20 mg/mL				
N[C@@H](CS)C(=O)O [L-Cysteine]	0.60 fold	0.13 mg/mL				
NC(=O)CC[C@H](N)C(=O)O [L-Glutamine]	3.87 fold	0.83 mg/mL	successfully enhanced the dissolution of glucagon			
N[C@@H](Cc1ccccc1)C(=O)O [L-Phenylalanine]	1.66 fold	0.36 mg/mL				
N[C@@H](Cc1c[nH]c2ccccc12)C(=O)O [L-Tryptophan]	1.54 fold	0.33 mg/mL				
N[C@@H](Cc1c[nH]cn1)C(=O)O [L-histidine]	2.57 fold	0.55 mg/mL		1.41 fold	0.30 mg/mL	
CC(C)C[C@H](N)C(=O)O [L-leucine]	1.32 fold	0.28 mg/mL				
NCCCC[C@H](N)C(=O)O [L-lysine]	2.84 fold	0.61 mg/mL				
O=C(O)[C@H](O)[C@@H](O)[C@H](O[C@@H]1O[C@H](CO)[C@H](O)[C@H](O)[C@H]1O)[C@H](O)CO [Lactobionic Acid]	1.35 fold	0.29 mg/mL				
CCCCCCCCCCCC[N+](C)(C)CCCS(=O)(=O)O [Lauryl sulfobetaine]	0.52 fold	0.11 mg/mL				
O=S(=O)(O)CC(O)CN1CCOCC1 (centres unmarked) [MOPSO]	1.37 fold	0.29 mg/mL				
O=S(=O)(O)CCCN1CCOCC1 [MOPS]	0.80 fold	0.17 mg/mL				
O=C(O)/C=C\C(=O)O [Maleic Acid]	0.34 fold	0.07 mg/mL				
O=C(O)CC(O)C(=O)O (centres unmarked) [Malic Acid]	0.35 fold	0.08 mg/mL				
OC[C@@H](O)[C@@H](O)[C@H](O)[C@H](O)CO [Mannitol]	2.49 fold	0.54 mg/mL				
CNC[C@H](O)[C@@H](O)[C@H](O)[C@H](O)CO [Meglumine]		1.32 mg/mL				
CSCC[C@H](N)C(=O)O [Methionine]	1.81 fold	0.39 mg/mL				
CCCCCCCCCCCCCC[N+](C)(C)CCCS(=O)(=O)[O-] [Myristyl sulfobetaine]	5.33 fold	1.15 mg/mL	successfully enhanced the dissolution of glucagon			up to 500%
NC(=O)c1cccnc1 [Niacinamide]	1.17 fold	0.25 mg/mL				
CCCCCCCC[N+](C)(C)CCCS(=O)(=O)[O-] [Octyl sulfobetaine]	1.15 fold	0.25 mg/mL				
O=C(O)CN(CCN(CC(=O)O)CC(=O)O)CCN(CC(=O)O)CC(=O)O [Pentetic Acid]	1.95 fold	0.42 mg/mL				
O=S(=O)(O)CCN1CCN(CCS(=O)(=O)O)CC1 [Piperazine-N,N′-bis(2-ethanesulfonic acid)]	3.70 fold	0.80 mg/mL	successfully enhanced the dissolution of glucagon			
O=C([O-])[C@H](O)[C@@H](O)[C@H](O)[C@H](O)CO.[K+] [Potassium Gluconate]	1.61 fold	0.35 mg/mL				
O=S([O-])S(=O)(=O)[O-].[K+].[K+] [Potassium Metabisulfite]	2.13 fold	0.46 mg/mL				
[Cl-].[K+] [Potassium chloride]	1.89 fold	0.41 mg/mL				
O=C1NS(=O)(=O)c2ccccc21.[Na] [Saccharin Sodium]	1.21 fold	0.26 mg/mL				
